According to PMC11420776 (RSC Advances, 2024):

Columns and labels:
[1] = tested on: MCF7 (breast cancer); assay: NCI 60-cell one-dose antiproliferative screen; format: cell-based, human; conditions: one dose 10 μM
[2] = tested on: SK-MEL-2 (melanoma); assay: NCI 60-cell one-dose antiproliferative screen; format: cell-based, human; conditions: one dose 10 μM
[3] = tested on: CCRF-CEM (leukemia); assay: NCI 60-cell one-dose antiproliferative screen; format: cell-based, human; conditions: one dose 10 μM
[4] = tested on: HOP-92 (NSC lung cancer); assay: NCI 60-cell one-dose antiproliferative screen; format: cell-based, human; conditions: one dose 10 μM
[5] = tested on: U251 (CNS cancer); assay: NCI 60-cell one-dose antiproliferative screen; format: cell-based, human; conditions: one dose 10 μM
[6] = tested on: IGROV1 (ovarian cancer); assay: NCI 60-cell one-dose antiproliferative screen; format: cell-based, human; conditions: one dose 10 μM
[7] = tested on: HT29 (colon cancer); assay: NCI 60-cell one-dose antiproliferative screen; format: cell-based, human; conditions: one dose 10 μM
[8] = tested on: ACHN (renal cancer); assay: NCI 60-cell one-dose antiproliferative screen; format: cell-based, human; conditions: one dose 10 μM
[9] = tested on: RXF 393 (renal cancer); assay: NCI 60-cell one-dose antiproliferative screen; format: cell-based, human; conditions: one dose 10 μM
[10] = tested on: HCT-15 (colon cancer); assay: NCI 60-cell one-dose antiproliferative screen; format: cell-based, human; conditions: one dose 10 μM
[11] = tested on: HCT-116 (colon cancer); assay: NCI 60-cell one-dose antiproliferative screen; format: cell-based, human; conditions: one dose 10 μM
[12] = tested on: UO-31 (renal cancer); assay: NCI 60-cell one-dose antiproliferative screen; format: cell-based, human; conditions: one dose 10 μM
[13] = tested on: 60 human tumor cell lines; assay: NCI 60-cell one-dose antiproliferative screen, whole panel; format: cell-based; conditions: Homo sapiens, 60 cell, read-out: Mean inhibition (mean GI%)
[14] = tested on: NCI-H322M (NSC lung cancer); assay: NCI 60-cell one-dose antiproliferative screen; format: cell-based, human; conditions: one dose 10 μM
[15] = tested on: EKVX (NSC lung cancer); assay: NCI 60-cell one-dose antiproliferative screen; format: cell-based, human; conditions: one dose 10 μM
[16] = tested on: UACC-62 (melanoma); assay: NCI 60-cell one-dose antiproliferative screen; format: cell-based, human; conditions: one dose 10 μM
[17] = tested on: NCI-H23 (NSC lung cancer); assay: NCI 60-cell one-dose antiproliferative screen; format: cell-based, human; conditions: one dose 10 μM
[18] = tested on: OVCAR-5 (ovarian cancer); assay: NCI 60-cell one-dose antiproliferative screen; format: cell-based, human; conditions: one dose 10 μM
[19] = tested on: OVCAR-8 (ovarian cancer); assay: NCI 60-cell one-dose antiproliferative screen; format: cell-based, human; conditions: one dose 10 μM
[20] = tested on: A498 (renal cancer); assay: NCI 60-cell one-dose antiproliferative screen; format: cell-based, human; conditions: one dose 10 μM
[21] = tested on: SNB-75 (CNS cancer); assay: NCI 60-cell one-dose antiproliferative screen; format: cell-based, human; conditions: one dose 10 μM
[22] = tested on: KM12 (colon cancer); assay: NCI 60-cell one-dose antiproliferative screen; format: cell-based, human; conditions: one dose 10 μM
[23] = tested on: SN12C (renal cancer); assay: NCI 60-cell one-dose antiproliferative screen; format: cell-based, human; conditions: one dose 10 μM
[24] = tested on: M14 (melanoma); assay: NCI 60-cell one-dose antiproliferative screen; format: cell-based, human; conditions: one dose 10 μM
[25] = tested on: MDA-MB-231/ATCC (breast cancer); assay: NCI 60-cell one-dose antiproliferative screen; format: cell-based, human; conditions: one dose 10 μM
[26] = tested on: TK-10 (renal cancer); assay: NCI 60-cell one-dose antiproliferative screen; format: cell-based, human; conditions: one dose 10 μM
[27] = tested on: SNB-19 (CNS cancer); assay: NCI 60-cell one-dose antiproliferative screen; format: cell-based, human; conditions: one dose 10 μM
[28] = tested on: SK-OV-3 (ovarian cancer); assay: NCI 60-cell one-dose antiproliferative screen; format: cell-based, human; conditions: one dose 10 μM
[29] = tested on: NCI/ADR-RES (ovarian cancer); assay: NCI 60-cell one-dose antiproliferative screen; format: cell-based, human; conditions: one dose 10 μM
[30] = tested on: PC-3 (prostate cancer); assay: NCI 60-cell one-dose antiproliferative screen; format: cell-based, human; conditions: one dose 10 μM
[31] = tested on: MALME-3M (melanoma); assay: NCI 60-cell one-dose antiproliferative screen; format: cell-based, human; conditions: one dose 10 μM
[32] = tested on: COLO-205 (colon cancer); assay: NCI 60-cell one-dose antiproliferative screen; format: cell-based, human; conditions: one dose 10 μM
[33] = tested on: NCI-H226 (NSC lung cancer); assay: NCI 60-cell one-dose antiproliferative screen; format: cell-based, human; conditions: one dose 10 μM
[34] = tested on: SK-MEL-28 (melanoma); assay: NCI 60-cell one-dose antiproliferative screen; format: cell-based, human; conditions: one dose 10 μM
[35] = tested on: A549/ATCC (NSC lung cancer); assay: NCI 60-cell one-dose antiproliferative screen; format: cell-based, human; conditions: one dose 10 μM
[36] = tested on: DU-145 (prostate cancer); assay: NCI 60-cell one-dose antiproliferative screen; format: cell-based, human; conditions: one dose 10 μM
[37] = tested on: HCC-2998 (colon cancer); assay: NCI 60-cell one-dose antiproliferative screen; format: cell-based, human; conditions: one dose 10 μM
[38] = tested on: NCI-H460 (NSC lung cancer); assay: NCI 60-cell one-dose antiproliferative screen; format: cell-based, human; conditions: one dose 10 μM
[39] = tested on: MDA-MB-435 (melanoma); assay: NCI 60-cell one-dose antiproliferative screen; format: cell-based, human; conditions: one dose 10 μM
[40] = tested on: OVCAR-3 (ovarian cancer); assay: NCI 60-cell one-dose antiproliferative screen; format: cell-based, human; conditions: one dose 10 μM
[41] = tested on: HS 578T (breast cancer); assay: NCI 60-cell one-dose antiproliferative screen; format: cell-based, human; conditions: one dose 10 μM
[42] = tested on: RPMI-8226 (leukemia); assay: NCI 60-cell one-dose antiproliferative screen; format: cell-based, human; conditions: one dose 10 μM
[43] = tested on: T-47D (breast cancer); assay: NCI 60-cell one-dose antiproliferative screen; format: cell-based, human; conditions: one dose 10 μM
[44] = tested on: NCI-H522 (NSC lung cancer); assay: NCI 60-cell one-dose antiproliferative screen; format: cell-based, human; conditions: one dose 10 μM
[45] = tested on: CAKI-1 (renal cancer); assay: NCI 60-cell one-dose antiproliferative screen; format: cell-based, human; conditions: one dose 10 μM
[46] = tested on: 786-0 (renal cancer); assay: NCI 60-cell one-dose antiproliferative screen; format: cell-based, human; conditions: one dose 10 μM
[47] = tested on: SW-620 (colon cancer); assay: NCI 60-cell one-dose antiproliferative screen; format: cell-based, human; conditions: one dose 10 μM
[48] = tested on: SF-539 (CNS cancer); assay: NCI 60-cell one-dose antiproliferative screen; format: cell-based, human; conditions: one dose 10 μM
[49] = tested on: HOP-62 (NSC lung cancer); assay: NCI 60-cell one-dose antiproliferative screen; format: cell-based, human; conditions: one dose 10 μM
[50] = tested on: OVCAR-4 (ovarian cancer); assay: NCI 60-cell one-dose antiproliferative screen; format: cell-based, human; conditions: one dose 10 μM
[51] = tested on: LOX IMIV (melanoma); assay: NCI 60-cell one-dose antiproliferative screen; format: cell-based, human; conditions: one dose 10 μM
[52] = tested on: UACC-257 (melanoma); assay: NCI 60-cell one-dose antiproliferative screen; format: cell-based, human; conditions: one dose 10 μM
[53] = tested on: SF-268 (CNS cancer); assay: NCI 60-cell one-dose antiproliferative screen; format: cell-based, human; conditions: one dose 10 μM
[54] = tested on: SF-295 (CNS cancer); assay: NCI 60-cell one-dose antiproliferative screen; format: cell-based, human; conditions: one dose 10 μM
[55] = tested on: MDA-MB-468 (breast cancer); assay: NCI 60-cell one-dose antiproliferative screen; format: cell-based, human; conditions: one dose 10 μM
[56] = tested on: caspase-9; assay: Caspase-9; format: cell-based, human; conditions: MCF7 cells, versus untreated control cells
[57] = MTT cytotoxicity assay, MCF10a; format: cell-based; conditions: human, MCF10a normal mammary epithelial cells

For `COc1ccc(-c2nnc3ccc(NNC(C)=O)nn23)cc1` [Compound 6b, N′-(3-(4-methoxyphenyl)-[1,2,4]triazolo[4,3-b]pyridazin-6-yl)acetohydrazide], the GI% [1] was “— (— GI% is below 15%)”, the GI% [2] was “— (— GI% is below 15%)” and the GI% [3] was “— (— GI% is below 15%)”. For the same compound, the GI% [4] was “— (— GI% is below 15%)”, the GI% [5] was “— (— GI% is below 15%)” and the GI% [6] was “— (— GI% is below 15%)”. For the same compound, the GI% [7] was “— (— GI% is below 15%)”, the GI% [8] was “— (— GI% is below 15%)” and the GI% [9] was “— (— GI% is below 15%)”. For the same compound, the GI% [10] was “— (— GI% is below 15%)”, the GI% [11] was “— (— GI% is below 15%)” and the GI% [12] was “— (— GI% is below 15%)”. The inhibition at 10 µM [13] was less than 0%, the GI% [14] was “— (— GI% is below 15%)” and the GI% [15] was “— (— GI% is below 15%)”. The GI% [16] was “— (— GI% is below 15%)”, the GI% [17] was “— (— GI% is below 15%)” and the GI% [18] was “— (— GI% is below 15%)”. For the same compound, the GI% [19] was “— (— GI% is below 15%)”, the GI% [20] was “— (— GI% is below 15%)” and the GI% [21] was “— (— GI% is below 15%)”. The GI% [22] was “— (— GI% is below 15%)”, the GI% [23] was “— (— GI% is below 15%)” and the GI% [24] was “— (— GI% is below 15%)”. For the same compound, the GI% [25] was “— (— GI% is below 15%)”, the GI% [26] was “— (— GI% is below 15%)” and the GI% [27] was “— (— GI% is below 15%)”. For the same compound, the GI% [28] was “— (— GI% is below 15%)”, the GI% [29] was “— (— GI% is below 15%)” and the GI% [30] was “— (— GI% is below 15%)”. The GI% [31] was “— (— GI% is below 15%)”, the GI% [32] was “— (— GI% is below 15%)” and the GI% [33] was “— (— GI% is below 15%)”. The GI% [34] was “— (— GI% is below 15%)”, the GI% [35] was “— (— GI% is below 15%)” and the GI% [36] was “— (— GI% is below 15%)”. For the same compound, the GI% [37] was “— (— GI% is below 15%)”, the GI% [38] was “— (— GI% is below 15%)” and the GI% [39] was “— (— GI% is below 15%)”. The GI% [40] was “— (— GI% is below 15%)”, the GI% [41] was “— (— GI% is below 15%)” and the GI% [42] was “— (— GI% is below 15%)”. The GI% [43] was “— (— GI% is below 15%)”, the GI% [44] was “— (— GI% is below 15%)” and the GI% [45] was “— (— GI% is below 15%)”. For the same compound, the GI% [46] was “— (— GI% is below 15%)”, the GI% [47] was “— (— GI% is below 15%)” and the GI% [48] was “— (— GI% is below 15%)”. The GI% [49] was “— (— GI% is below 15%)”, the GI% [50] was “— (— GI% is below 15%)” and the GI% [51] was “— (— GI% is below 15%)”. For the same compound, the GI% [52] was “— (— GI% is below 15%)”, the GI% [53] was “— (— GI% is below 15%)” and the GI% [54] was “— (— GI% is below 15%)”. The GI% [55] was “— (— GI% is below 15%)”.
With `CN[C@@H]1C[C@H]2O[C@@](C)([C@@H]1OC)n1c3ccccc3c3c4c(c5c6ccccc6n2c5c31)C(=O)NC4` [Staurosporine, reference compound] the “increase of apoptotic caspase-9 level” value [56] was 7.19 fold and the IC50 at 72 h [57] was 18.3 ± 8.03 µM.
